# Data as given in patent publication US8901118B2, “Compounds and methods for kinase modulation, and indications therefor” (Plexxikon Inc., priority 2010, dated 2014).
# Legend:
# [1] = target: T1, BCR-NTRK3 BaF3 cells (Homo sapiens, UniProt Q16288); assay: BaF3 BCR-NTRK3 cell proliferation assay (ATPlite); assay type: cell-based; details: read-out: Inhibition of Cell Proliferation IC50, BCR/BaF3 TrkC
# T1 construct: fused on or other part: P11274 (Breakpoint cluster region protein)
# In short: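 Proliferation was run for 3 days at 37 °C against 8-point 1:3 titrations with 10 μM as the top final concentration. Seeding was 10,000 cells/well for BaF3 BCR-fusion lines, grown without IL-3, and 25,000 cells/well for MV-4-11. IC50 was derived from ATPlite luminescence read as cell number.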
# [2] = target: CYP3A4(BFC) (Homo sapiens, UniProt P08684); assay: CYP3A4(BFC) inhibition; assay type: in vitro ADME; details: CYP3A4, substrate BFC; read-out: Cyp IC50 3A4(BFC)
# Chain of CYP3A4(BFC) (P08684 whole entry): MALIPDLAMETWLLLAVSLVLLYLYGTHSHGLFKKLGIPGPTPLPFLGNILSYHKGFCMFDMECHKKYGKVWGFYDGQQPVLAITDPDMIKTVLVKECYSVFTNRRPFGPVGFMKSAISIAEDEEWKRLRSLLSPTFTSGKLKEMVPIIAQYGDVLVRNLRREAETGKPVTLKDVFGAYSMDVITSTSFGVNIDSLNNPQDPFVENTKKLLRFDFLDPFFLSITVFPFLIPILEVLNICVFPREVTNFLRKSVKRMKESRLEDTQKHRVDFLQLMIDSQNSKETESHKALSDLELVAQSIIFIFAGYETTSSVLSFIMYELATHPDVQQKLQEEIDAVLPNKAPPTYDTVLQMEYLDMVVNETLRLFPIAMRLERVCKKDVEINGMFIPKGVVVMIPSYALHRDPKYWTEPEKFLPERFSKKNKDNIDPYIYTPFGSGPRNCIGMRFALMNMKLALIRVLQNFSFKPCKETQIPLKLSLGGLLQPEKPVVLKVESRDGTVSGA
# In short: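 This fluorescence assay tracks how test compounds reduce CYP3A4 turnover of BFC, with enzyme and substrate from BD Biosciences. A 10-point 1:1 dilution series in cofactor mix (1.3% NADPH Regeneration Solution A, 1.04% Solution B, 5% acetonitrile, 0.05% DMSO) was dispensed at 10 μL into 384 well plates, preincubated 10 minutes at 37° C, then incubated 30 min and read on a Tecan Safire 2.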
# T1 sequence (Q16288 whole entry, the tested form may be a part): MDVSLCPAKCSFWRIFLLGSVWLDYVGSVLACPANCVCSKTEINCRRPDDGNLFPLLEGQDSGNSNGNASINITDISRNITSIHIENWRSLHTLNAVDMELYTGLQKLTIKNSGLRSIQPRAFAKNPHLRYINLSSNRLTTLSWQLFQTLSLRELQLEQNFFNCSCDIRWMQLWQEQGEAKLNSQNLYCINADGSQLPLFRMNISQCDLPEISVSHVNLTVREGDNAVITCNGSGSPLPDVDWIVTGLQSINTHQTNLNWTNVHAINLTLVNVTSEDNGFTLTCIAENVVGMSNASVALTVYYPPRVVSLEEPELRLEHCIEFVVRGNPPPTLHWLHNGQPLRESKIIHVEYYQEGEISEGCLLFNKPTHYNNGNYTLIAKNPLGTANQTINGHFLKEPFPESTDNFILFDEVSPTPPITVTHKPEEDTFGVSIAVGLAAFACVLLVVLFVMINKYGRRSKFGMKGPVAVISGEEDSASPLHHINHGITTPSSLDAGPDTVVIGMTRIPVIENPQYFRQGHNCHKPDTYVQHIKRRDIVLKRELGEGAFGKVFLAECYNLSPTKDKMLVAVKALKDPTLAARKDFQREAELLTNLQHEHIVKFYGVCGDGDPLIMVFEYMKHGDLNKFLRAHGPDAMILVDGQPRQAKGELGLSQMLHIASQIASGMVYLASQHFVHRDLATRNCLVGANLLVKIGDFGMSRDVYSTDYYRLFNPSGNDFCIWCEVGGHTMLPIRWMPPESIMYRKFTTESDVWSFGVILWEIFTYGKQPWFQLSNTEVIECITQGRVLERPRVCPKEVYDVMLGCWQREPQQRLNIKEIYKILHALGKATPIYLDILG
SMILES,IC50 [1],IC50 [2]
"O=C(c1ccc(Nc2ccc(C3CC3)nc2)nc1F)c1c[nH]c2ncnc(NCC(F)(F)F)c12 [Compound P-4090, [6-[(6-cyclopropyl-3-pyridyl)amino]-2-fluoro-3-pyridyl]-[4-(2,2,2-trifluoroethylamino)-7H-pyrrolo[2,3-d]pyrimidin-5-yl]methanone]",< 10 nM,> 10000 nM
"O=C(c1ccc(Nc2ccc(C(F)(F)F)nc2)nc1F)c1c[nH]c2ncnc(NC3CC3)c12 [Compound P-4091, [4-(cyclopropylamino)-7H-pyrrolo[2,3-d]pyrimidin-5-yl]-[2-fluoro-6-[[6-(trifluoromethyl)-3-pyridyl]amino]-3-pyridyl]methanone]",< 10 nM,> 10000 nM
"CNc1ncnc2[nH]cc(C(=O)c3ccc(Nc4ccc(C(F)(F)F)nc4)nc3F)c12 [Compound P-4092, [2-fluoro-6-[[6-(trifluoromethyl)-3-pyridyl]amino]-3-pyridyl]-[4-(methylamino)-7H-pyrrolo[2,3-d]pyrimidin-5-yl]methanone]",< 10 nM,> 10000 nM
"O=C(c1ccc(Nc2ccc(C3CC3)nc2)nc1F)c1c[nH]c2ncnc(NC3CC3)c12 [Compound P-4093, [4-(cyclopropylamino)-7H-pyrrolo[2,3-d]pyrimidin-5-yl]-[6-[(6-cyclopropyl-3-pyridyl)amino]-2-fluoro-3-pyridyl]methanone]",< 10 nM,> 10000 nM
"CNc1ncnc2[nH]cc(C(=O)c3ccc(Nc4ccc(C5CC5)nc4)nc3F)c12 [Compound P-4094, [6-[(6-cyclopropyl-3-pyridyl)amino]-2-fluoro-3-pyridyl]-[4-(methylamino)-7H-pyrrolo[2,3-d]pyrimidin-5-yl]methanone]",< 10 nM,> 10000 nM
"CCc1ccc(Nc2ccc(C(=O)c3c[nH]c4ncnc(NC5CCC5)c34)c(F)n2)cn1 [Compound P-4095, [4-(cyclobutylamino)-7H-pyrrolo[2,3-d]pyrimidin-5-yl]-[6-[(6-ethyl-3-pyridyl)amino]-2-fluoro-3-pyridyl]methanone]",< 10 nM,> 10000 nM
"COc1cncc(Nc2ccc(C(=O)c3c[nH]c4ncnc(NCC(F)(F)F)c34)c(F)n2)c1 [Compound P-4103, [2-fluoro-6-[(5-methoxy-3-pyridyl)amino]-3-pyridyl]-[4-(2,2,2-trifluoroethylamino)-7H-pyrrolo[2,3-d]pyrimidin-5-yl]methanone]",> 1000 nM,> 10000 nM
"COc1cncc(Nc2ccc(C(=O)c3c[nH]c4ncnc(NC5CCCCC5)c34)c(F)n2)c1 [Compound P-4104, [4-(cyclohexylamino)-7H-pyrrolo[2,3-d]pyrimidin-5-yl]-[2-fluoro-6-[(5-methoxy-3-pyridyl)amino]-3-pyridyl]methanone]",< 100 nM,> 10000 nM
"CCCNc1ncnc2[nH]cc(C(=O)c3ccc(Nc4cncc(OC)c4)nc3F)c12 [Compound P-4105, [2-fluoro-6-[(5-methoxy-3-pyridyl)amino]-3-pyridyl]-[4-(propylamino)-7H-pyrrolo[2,3-d]pyrimidin-5-yl]methanone]",< 1000 nM,> 10000 nM
"COc1cncc(Nc2ccc(C(=O)c3c[nH]c4ncnc(NC(C)C)c34)c(F)n2)c1 [Compound P-4106, [2-fluoro-6-[(5-methoxy-3-pyridyl)amino]-3-pyridyl]-[4-(isopropylamino)-7H-pyrrolo[2,3-d]pyrimidin-5-yl]methanone]",< 10 nM,> 10000 nM
"COc1cncc(Nc2ccc(C(=O)c3c[nH]c4ncnc(NC5CC5)c34)c(F)n2)c1 [Compound P-4107, [4-(cyclopropylamino)-7H-pyrrolo[2,3-d]pyrimidin-5-yl]-[2-fluoro-6-[(5-methoxy-3-pyridyl)amino]-3-pyridyl]methanone]",< 10 nM,> 10000 nM
"CNc1ncnc2[nH]cc(C(=O)c3ccc(Nc4cncc(OC)c4)nc3F)c12 [Compound P-4108, [2-fluoro-6-[(5-methoxy-3-pyridyl)amino]-3-pyridyl]-[4-(methylamino)-7H-pyrrolo[2,3-d]pyrimidin-5-yl]methanone]",< 100 nM,> 10000 nM
"Cc1ccc(Nc2ccc(C(=O)c3c[nH]c4ncnc(NC5CCCCC5)c34)c(F)n2)cn1 [Compound P-4111, [4-(cyclohexylamino)-7H-pyrrolo[2,3-d]pyrimidin-5-yl]-[2-fluoro-6-[(6-methyl-3-pyridyl)amino]-3-pyridyl]methanone]",< 10 nM,> 10000 nM
"Cc1ccc(Nc2ccc(C(=O)c3c[nH]c4ncnc(NCC(F)(F)F)c34)c(F)n2)cn1 [Compound P-4112, [2-fluoro-6-[(6-methyl-3-pyridyl)amino]-3-pyridyl]-[4-(2,2,2-trifluoroethylamino)-7H-pyrrolo[2,3-d]pyrimidin-5-yl]methanone]",< 10 nM,> 10000 nM
"CNc1ncnc2[nH]cc(C(=O)c3ccc(Nc4ccc(C)nc4)nc3F)c12 [Compound P-4115, [2-fluoro-6-[(6-methyl-3-pyridyl)amino]-3-pyridyl]-[4-(methylamino)-7H-pyrrolo[2,3-d]pyrimidin-5-yl]methanone]",< 10 nM,> 10000 nM
"CCc1ccc(Nc2ccc(C(=O)c3c[nH]c4ncnc(NC5CCOCC5)c34)c(F)n2)cn1 [Compound P-4116, [6-[(6-ethyl-3-pyridyl)amino]-2-fluoro-3-pyridyl]-[4-(tetrahydropyran-4-ylamino)-7H-pyrrolo[2,3-d]pyrimidin-5-yl]methanone]",< 10 nM,> 10000 nM
"CCc1ccc(Nc2ccc(C(=O)c3c[nH]c4ncnc(NC(C)C)c34)c(F)n2)cn1 [Compound P-4117, [6-[(6-ethyl-3-pyridyl)amino]-2-fluoro-3-pyridyl]-[4-(isopropylamino)-7H-pyrrolo[2,3-d]pyrimidin-5-yl]methanone]",< 10 nM,> 10000 nM

# Second part, the compound after the results:
IC50 [1],IC50 [2],SMILES
< 10 nM,> 10000 nM,"CCc1ccc(Nc2ccc(C(=O)c3c[nH]c4ncnc(NCC5CC5)c34)c(F)n2)cn1 [Compound P-4118, [4-(cyclopropylmethylamino)-7H-pyrrolo[2,3-d]pyrimidin-5-yl]-[6-[(6-ethyl-3-pyridyl)amino]-2-fluoro-3-pyridyl]methanone]"
< 10 nM,> 10000 nM,"CCc1ccc(Nc2ccc(C(=O)c3c[nH]c4ncnc(NCCOC)c34)c(F)n2)cn1 [Compound P-4119, [6-[(6-ethyl-3-pyridyl)amino]-2-fluoro-3-pyridyl]-[4-(2-methoxyethylamino)-7H-pyrrolo[2,3-d]pyrimidin-5-yl]methanone]"
< 10 nM,> 10000 nM,"CCc1ccc(Nc2ccc(C(=O)c3c[nH]c4ncnc(NCC(F)(F)F)c34)c(F)n2)cn1 [Compound P-4120, [6-[(6-ethyl-3-pyridyl)amino]-2-fluoro-3-pyridyl]-[4-(2,2,2-trifluoroethylamino)-7H-pyrrolo[2,3-d]pyrimidin-5-yl]methanone]"
< 10 nM,> 10000 nM,"CCc1ccc(Nc2ccc(C(=O)c3c[nH]c4ncnc(NCC(C)C)c34)c(F)n2)cn1 [Compound P-4121, [6-[(6-ethyl-3-pyridyl)amino]-2-fluoro-3-pyridyl]-[4-(isobutylamino)-7H-pyrrolo[2,3-d]pyrimidin-5-yl]methanone]"
< 10 nM,> 10000 nM,"CCCNc1ncnc2[nH]cc(C(=O)c3ccc(Nc4ccc(CC)nc4)nc3F)c12 [Compound P-4122, [6-[(6-ethyl-3-pyridyl)amino]-2-fluoro-3-pyridyl]-[4-(propylamino)-7H-pyrrolo[2,3-d]pyrimidin-5-yl]methanone]"
< 10 nM,> 10000 nM,"CCNc1ncnc2[nH]cc(C(=O)c3ccc(Nc4ccc(CC)nc4)nc3F)c12 [Compound P-4123, [4-(ethylamino)-7H-pyrrolo[2,3-d]pyrimidin-5-yl]-[6-[(6-ethyl-3-pyridyl)amino]-2-fluoro-3-pyridyl]methanone]"
< 10 nM,> 10000 nM,"CCc1ccc(Nc2ccc(C(=O)c3c[nH]c4ncnc(NC)c34)c(F)n2)cn1 [Compound P-4124, [6-[(6-ethyl-3-pyridyl)amino]-2-fluoro-3-pyridyl]-[4-(methylamino)-7H-pyrrolo[2,3-d]pyrimidin-5-yl]methanone]"
< 10 nM,> 10000 nM,"CCc1ccc(Nc2ccc(C(=O)c3c[nH]c4ncnc(NC5CC5)c34)c(F)n2)cn1 [Compound P-4125, [4-(cyclopropylamino)-7H-pyrrolo[2,3-d]pyrimidin-5-yl]-[6-[(6-ethyl-3-pyridyl)amino]-2-fluoro-3-pyridyl]methanone]"
< 10 nM,< 10000 nM,"COc1ccc(Nc2ccc(C(=O)c3c[nH]c4ncnc(NC5CC5)c34)c(F)n2)cn1 [Compound P-4126, [4-(cyclopropylamino)-7H-pyrrolo[2,3-d]pyrimidin-5-yl]-[2-fluoro-6-[(6-methoxy-3-pyridyl)amino]-3-pyridyl]methanone]"
< 100 nM,< 5000 nM,"Fc1cc(Cc2c[nH]c3ncnc(NC4CC4)c23)cnc1NC1CCC(F)(F)CC1 [Compound P-4127, N-cyclopropyl-5-[[6-[(4,4-difluorocyclohexyl)amino]-5-fluoro-3-pyridyl]methyl]-7H-pyrrolo[2,3-d]pyrimidin-4-amine]"
